Data from patent publication US20230042830A1, “COMPOSITIONS AND METHODS FOR GENERATION OF RETINAL GANGLION CELLS FROM INDUCIBLE PLURIPOTENT STEM CELLS FOR THE TREATMENT OF PROGRESSIVE OPTIC NEUROPATHIES, INCLUDING GLAUCOMA” (THE TRUSTEES OF THE UNIVERSITY OF PENNSYLVANIA, priority 2021, published 2023).

What was measured:
sonic hedgehog = assay: RGC induction with SHH or SAG; format: cell-based, human; settings: 100 nM, day 22-23
Description: Prior to RGC differentiation, medium was changed daily using RGC induction media containing SHH (sonic hedgehog) (250 ng/mL; R&D systems) or SAG (100 nM; Tocris), SHH was replaced with SAG after establishing equal competence, FGF8 (100 ng/mL, R&D systems) for two days. For RGC differentiation (see FIGS. 1D and 2B for kinetics), on day 24, cells were manually crossed into small clusters with Leibovitz's medium containing […] Glucose using the crosshatching technique as previously described (Espuny-Camacho et al., 2013), then replated at a density of 1.0×10^5 cells/well of 6-well plate coated with 1:100 diluted growth factor reduced Matrigel in RGCs induction media containing: Follistatin 300 (100 ng/ml), cyclopamine (0.5 uM, Tocris), DAPT (3 uM, Tocris), and 4.2 μM Rock inhibitor (Y27632). Media was changed 24 h post-plating with RGC induction media containing: Follistatin 300 (100 ng/ml) and DAPT (3 uM), daily for two days. From day 27, media was changed to RGC induction media containing: DAPT (3 uM, Tocris), 10 μM Rock inhibitor (Y27632), forskolin (5 uM; SelleckChem), cAMP (400 uM; Sigma-Aldrich), BDNF (40 ng/mL; R&D systems), NT4 (5 ng/mL; R&D systems), and CNTF (10 ng/mL; R&D systems). Media was changed every 2-3 days until day 36. […]

SIRT1 pathway = settings: mouse models of optic neuritis and optic nerve trauma; cited from earlier work
iPSC-RGC cultures = assay: Flow cytometry analysis of iPSC-RGC cultures (CD90/Thy-1, Brn-3b, RBPMS, SNCG); format: cell-based, human; settings: flow cytometry after 35 days in vitro, three independent iPSC lines
Description: iPSCs were cultured on 0.1% gelatinized plates containing iMEFs in 37° C. 5% O2 and 5% CO2 conditions. Cells were maintained until approximately 75% confluence, then feeder cells were depleted and approximately 1.5×10^6 iPSCs were seeded in one well of 6-well tissue culture dish (Corning) coated with 1:100 diluted growth factor reduced Matrigel. iPSCs were maintained in iPSC: MEF-conditioned medium (80:20)+20 ng/mL of bFGF and 5 ng/ml of stable bFGF. The MEF-conditioned media was prepared by plating iMEFs onto 0.1% gelatin at a density of 20,000 cells/cm^2 in iPSC media. […] On day 16 of differentiation, seven conditions—1) L, 2) X, 3) 1.5 μM CHIR99021 (CHIR) (Wnt agonist; SelleckChem), 4) LX, 5) LSB, 6) LSB-CHIR and 7) LSBX were evaluated for RPC and RGC markers on day 23. Cultures from the following four conditions—1) LSBX, 2) LSB, 3) LX, and 4) 1.5 μM CHIR99021 (CHIR) (Wnt agonist; SelleckChem) were further evaluated at 35. An additional five conditions—1) L only, 2) X only, 3) LSB, 4) LSBX, and 5) LSB-CHIR were evaluated for RPC markers on day 23 to evaluate for transcript expression differences across different conditions in RPCs. […]

CNC1CCC(N(Cc2cccc(-c3ccncc3)c2)C(=O)c2sc3ccccc3c2Cl)CC1 (stereo not drawn) [SAG]
RGC induction compared with SHH (sonic hedgehog): no difference in RGC induction changes

Oc1ccc(C=Cc2cc(O)cc(O)c2)cc1 [resveratrol]
visual function and RGC survival (SIRT1 pathway): preserves visual function and RGC survival

Cc1c[nH]c(-c2cnc(NCCNc3ccc(C#N)cn3)nc2-c2ccc(Cl)cc2Cl)n1 [CHIR, CHIR99021]
Thy-1 (CD90) positive cells (iPSC-RGC cultures): 22.5%
